Source: US11161837B2, “Benzofuran derivatives for the treatment of hepatitis C” (BRISTOL-MYERS SQUIBB COMPANY, priority 2016, dated 2021)

What was measured:
[1] = target: T1, NS5B proteins of HCV genotype 1b (Con1) (Hepatitis C virus genotype 1b, UniProt Q9WMX2); assay: HCV NS5B RdRp enzyme assay; assay type: biochemical; details: 1b enzyme
T1 construct: Each untagged protein was expressed with an 18 amino acid C-terminal truncation to enhance the solubility; made in house; host or cells: E. coli BL21(DE3), pET21a
T1 sequence (Q9WMX2 2420-2992): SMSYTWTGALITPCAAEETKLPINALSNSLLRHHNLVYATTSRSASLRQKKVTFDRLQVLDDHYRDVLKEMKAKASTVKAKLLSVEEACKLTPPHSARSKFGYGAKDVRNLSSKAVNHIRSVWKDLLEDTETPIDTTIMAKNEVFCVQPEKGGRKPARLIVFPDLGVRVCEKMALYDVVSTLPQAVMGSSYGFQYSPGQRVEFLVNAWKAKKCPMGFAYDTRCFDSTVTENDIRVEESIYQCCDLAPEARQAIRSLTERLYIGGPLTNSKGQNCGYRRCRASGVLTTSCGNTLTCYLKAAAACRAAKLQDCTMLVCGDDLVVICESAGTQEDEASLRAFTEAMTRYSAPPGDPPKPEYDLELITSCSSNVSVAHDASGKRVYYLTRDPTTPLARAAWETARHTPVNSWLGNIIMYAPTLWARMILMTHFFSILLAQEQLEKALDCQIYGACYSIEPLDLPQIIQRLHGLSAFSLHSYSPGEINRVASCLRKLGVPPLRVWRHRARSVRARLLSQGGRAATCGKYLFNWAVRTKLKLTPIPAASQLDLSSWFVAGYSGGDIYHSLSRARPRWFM
Protocol: HCVNS5B RdRp Cloning, Expression, and Purification.
The cDNA encoding NS5B proteins of HCV genotype 1b (Con1), a genotype 1b variant with amino acid 316 mutated from cysteine to asparagine, and genotype 2a (JFH-1), were cloned into the pET21a expression vector. Each untagged protein was expressed with an 18 amino acid C-terminal truncation to enhance the solubility. The E. coli competent cell line BL21(DE3) was used for expression of the protein. Cultures were grown at 37° C. for ˜4 hours until the cultures reached an optical density of 2.0 at 600 nm. The cultures were cooled to 20° C. and induced with 1 mM IPTG. Fresh ampicillin was added to a final concentration of 50 μg/mL and the cells were grown overnight at 20° C.
Cell pellets (3 L) were lysed for purification to yield 15-24 mgs of purified NS5B. The lysis buffer consisted of 20 mM Tris-HCl, pH 7.4, 500 mM NaCl, 0.5% triton X-100, 1 mM DTT, 1 mM EDTA, 20% glycerol, 0.5 mg/mL lysozyme, 10 mM MgCl2, 15 ug/mL deoxyribonuclease I, and Complete TM protease inhibitor tablets (Roche). After addition of the lysis buffer, frozen cell pellets were resuspended using a tissue homogenizer. To reduce the viscosity of the sample, aliquots of the lysate were sonicated on ice using a microtip attached to a Branson sonicator. The sonicated lysate was centrifuged at 100,000×g for 30 minutes at 4° C. and filtered through a 0.2 μm filter unit (Corning).
The protein was purified using two sequential chromatography steps: Heparin sepharose CL-6B and polyU sepharose 4B. The chromatography buffers were identical to the lysis buffer but contained no lysozyme, deoxyribonuclease I, MgCl2 or protease inhibitor and the NaCl concentration of the buffer was adjusted according to the requirements for charging the protein onto the column. Each column was eluted with a NaCl gradient which varied in length from 5-50 column volumes depending on the column type. After the final chromatography step, the resulting purity of the enzyme is >90% based on SDS-PAGE analysis. The enzyme was aliquoted and stored at −80° C.
HCVNS5B RdRp Enzyme Assay.
An on-bead solid phase homogeneous assay was used in a 384-well format to assess NS5B inhibitors (WangY-K, Rigat K, Roberts S, and Gao M (2006) Anal Biochem, 359: 106-111). The biotinylated oligo dT12 primer was captured on streptavidin-coupled imaging beads (GE, RPNQ0261) by mixing primer and beads in 1× buffer and incubating at room temperature for three hours. Unbound primer was removed after centrifugation. The primer-bound beads were resuspended in 3× reaction mix (20 mM Hepes buffer, pH 7.5, dT primer coupled beads, poly A template, ^3H-UTP, and RNAse inhibitor (Promega N2515)). Compounds were serially diluted 1:3 in DMSO and aliquoted into assay plates. Equal volumes (10 μL) of water, 3× reaction mix, and enzyme in 3× assay buffer (60 mM Hepes buffer, pH 7.5, 7.5 mM MgCl2, 7.5 mM KCl, 3 mM DTT, 0.03 mg/mL BSA, 6% glycerol) were added to the diluted compound on the assay plate. Final concentration of components in 384-well assay: 0.36 nM template, 15 nM primer, 0.29 μM ^3H-UTP (0.3 μCi), 1.6 U/μL RNAse inhibitor, 7 nM NS5B enzyme, 0.01 mg/mL BSA, 1 mM DTT, and 0.33 μg/μL beads, 20 mM Hepes buffer, pH 7.5, 2.5 mM MgCl2, 2.5 mM KCl, and 0.1% DMSO.
Reactions were allowed to proceed from 4 to 24 hours at 30° C. For 24 hour reactions, enzyme and inhibitors were pre-incubated for 24 hours before adding template and primer. Reactions were terminated by the addition of 50 mM EDTA (10 μL). After incubating for at least 15 minutes, plates were read on an Amersham LEADseeker multimodality imaging system.
IC50 values for compounds were determined using ten different [I]. IC50 values were calculated from the inhibition using the four-parameter logistic formula y=A+((B−A)/(1+((C/x)^D))), where A and B denote minimal and maximal % inhibition, respectively, C is the IC50, D is hill slope and x represents compound concentration.

[2] = tested on: genotype 1b (Con-1) HCV replicon in Huh-7 cells; assay: HCV replicon luciferase assay; assay type: cell-based; details: 1b replicon, Huh-7, Renilla luciferase, 3 days incubation
Protocol: The cell lines used to evaluate compounds consist of a human hepatocyte derived cell line (Huh-7) that constitutively expresses a genotype 1b (Con-1) HCV replicon or a genotype 1b (Con-1) HCV replicon with an asparagine replacing the cysteine at amino acid 316, or a genotype 2a (JFH-1) replicon, containing a Renilla luciferase reporter gene. These cells were maintained in Dulbecco's modified Eagle medium (DMEM) containing 10% FBS, 100 U/mL penicillin/streptomycin and 1.0 mg/mL G418.
HCV Replicon Luciferase Assay.
To evaluate compound efficacy, titrated compounds were transferred to sterile 384-well tissue culture treated plates, and the plates were seeded with HCV replicon cells (50 μL at a density of 2.4×10^3 cells/well) in DMEM containing 4% FBS (final DMSO concentration at 0.5%). After 3 days incubation at 37° C., cells were analyzed for Renilla Luciferase activity using the EnduRen substrate (Promega cat # E6485) according to the manufacturer's directions. Briefly, the EnduRen substrate was diluted in DMEM and then added to the plates to a final concentration of 7.5 μM. The plates were incubated for at least 1 h at 37° C. then read on a Viewlux Imager (PerkinElmer) using a luminescence program. The 50% effective concentration (EC50) was calculated using the four-parameter logistic formula noted above.

SMILES	IC50 [1] [nM]	EC50 [2] [nM]	EC50 ([2]; Hepatitis C virus, Huh-7, 72 h) [nM]
CCCc1cc2oc(-c3ccc(F)cc3)c(C(=O)NC)c2cc1-c1ccc(OC)c(C(=O)NC2(c3ncccn3)CC(OC(F)(F)F)C2)c1 (single isomer, unassigned) [Example 51b, 2-(4-Fluorophenyl)-5-(4-methoxy-3-((1-(pyrimidin-2-yl)-3-(trifluoromethoxy)cyclobutyl)carbamoyl)phenyl)-N-methyl-6-propylbenzofuran-3-carboxamide]	20	10	–
CNC(=O)c1c(-c2ccc(F)cc2)oc2ccc(-c3cc(C(=O)NC4(c5ncccn5)CC(O)C4)c(OC)cc3C)c(F)c12 (single isomer, unassigned) [Example 12a, 4-Fluoro-2-(4-fluorophenyl)-5-(5-((3-hydroxy-1-(pyrimidin-2-yl)cyclobutyl)carbamoyl)-4-methoxy-2-methylphenyl)-N-methylbenzofuran-3-carboxamide]	760	430	–
CNC(=O)c1c(-c2ccc(F)cc2)oc2ccc(-c3cc(C(=O)NC4(c5ncccn5)CC(O)C4)cc(F)c3C)c(F)c12 (single isomer, unassigned) [Example 9a, 4-Fluoro-5-(3-fluoro-5-((3-hydroxy-1-(pyrimidin-2-yl)cyclobutyl)carbamoyl)-2-methylphenyl)-2-(4-fluorophenyl)-N-methylbenzofuran-3-carboxamide]	570	–	470
CNC(=O)c1c(-c2ccc(F)cc2)oc2ccc(-c3cc(C(=O)NC4(c5ncccn5)CC(OC)C4)ccc3C)c(F)c12 (single isomer, unassigned) [Example 10a, 4-Fluoro-2-(4-fluorophenyl)-5-(5-((3-methoxy-1-(pyrimidin-2-yl)cyclobutyl)carbamoyl)-2-methylphenyl)-N-methylbenzofuran-3-carboxamide]	60	30	–
CNC(=O)c1c(-c2ccc(F)cc2)oc2ccc(-c3cc(C(=O)NC4(c5ncccn5)CC(OC)C4)cc(F)c3C)c(F)c12 (single isomer, unassigned) [Example 11b, 4-Fluoro-5-(3-fluoro-5-((3-methoxy-1-(pyrimidin-2-yl)cyclobutyl)carbamoyl)-2-methylphenyl)-2-(4-fluorophenyl)-N-methylbenzofuran-3-carboxamide]	30	4.56	–
CNC(=O)c1c(-c2ccc(F)cc2)oc2cc(CCC(F)(F)F)c(-c3cccc(C(=O)NC4(c5ncccn5)CC(OC(F)(F)F)C4)c3)cc12 (single isomer, unassigned) [Example 45a, 2-(4-Fluorophenyl)-N-methyl-5-(3-((1-(pyrimidin-2-yl)-3-(trifluoromethoxy)cyclobutyl)carbamoyl)phenyl)-6-(3,3,3-trifluoropropyl)benzofuran-3-carboxamide]	20	20	–
CNC(=O)c1c(-c2ccc(F)cc2)oc2ccc(-c3cc(C(=O)NC4(c5ncccn5)CC(=O)C4)ccc3C)c(F)c12 [Example 6, 4-Fluoro-2-(4-fluorophenyl)-N-methyl-5-(2-methyl-5-((3-oxo-1-(pyrimidin-2-yl)cyclobutyl)carbamoyl)phenyl)benzofuran-3-carboxamide]	10	–	20
CNC(=O)c1c(-c2ccc(F)cc2)oc2cc(CCC(F)(F)F)c(-c3ccc(F)c(C(=O)NC4(C)CC(OC(F)F)C4)c3)cc12 (single isomer, unassigned) [Example 63b, 5-(3-((3-(Difluoromethoxy)-1-methylcyclobutyl)carbamoyl)-4-fluorophenyl)-2-(4-fluorophenyl)-N-methyl-6-(3,3,3-trifluoropropyl)benzofuran-3-carboxamide]	3.03	10	–
CNC(=O)c1c(-c2ccc(F)cc2)oc2ccc(-c3cc(C(=O)NC4(c5ncccn5)CC(F)C4)c(OC)cc3C)c(F)c12 (stereo not drawn) [Example 19, 4-Fluoro-5-(5-(3-fluoro-1-(pyrimidin-2-yl)cyclobutylcarbamoyl)-4-methoxy-2-methylphenyl)-2-(4-fluorophenyl)-N-methylbenzofuran-3-carboxamide]	120	–	5.26
CNC(=O)c1c(-c2ccc(F)cc2)oc2ccc(-c3cc(C(=O)NC4(c5ncccn5)CC(OC)(OC)C4)cc(F)c3C)c(F)c12 [Example 8, 5-(5-(3,3-Dimethoxy-1-(pyrimidin-2-yl)cyclobutylcarbamoyl)-3-fluoro-2-methylphenyl)-4-fluoro-2-(4-fluorophenyl)-N-methylbenzofuran-3-carboxamide]	40	–	20
CCOc1cc2oc(-c3ccc(F)cc3)c(C(=O)NC)c2cc1-c1cccc(C(=O)NC2(c3ncon3)CC(OC(F)F)C2)c1 (stereo not drawn) [Example 70, 5-(3-((3-(Difluoromethoxy)-1-(1,2,4-oxadiazol-3-yl)cyclobutyl)carbamoyl)phenyl)-6-ethoxy-2-(4-fluorophenyl)-N-methylbenzofuran-3-carboxamide]	–	–	6.47
CCOc1cc2oc(-c3ccc(F)cc3)c(C(=O)NC)c2cc1-c1cccc(C(=O)NC2(c3ncccn3)CC(OC(F)F)C2)c1 (single isomer, unassigned) [Example 67a, 5-(3-((3-(Difluoromethoxy)-1-(pyrimidin-2-yl)cyclobutyl)carbamoyl)phenyl)-6-ethoxy-2-(4-fluorophenyl)-N-methylbenzofuran-3-carboxamide]	–	30	–
CNC(=O)c1c(-c2ccc(F)cc2)oc2cc(CCC(F)(F)F)c(-c3ccc(F)c(C(=O)NC4(C)CC(OC(F)F)C4)c3)cc12 (single isomer, unassigned) [Example 63a, 5-(3-((3-(Difluoromethoxy)-1-methylcyclobutyl)carbamoyl)-4-fluorophenyl)-2-(4-fluorophenyl)-N-methyl-6-(3,3,3-trifluoropropyl)benzofuran-3-carboxamide]	–	–	10
CCCc1cc2oc(-c3ccc(F)cc3)c(C(=O)NC)c2cc1-c1ccc(F)c(C(=O)NC2(C)CC(OC(F)F)C2)c1 (single isomer, unassigned) [Example 61a, 5-(3-((3-(Difluoromethoxy)-1-methylcyclobutyl)carbamoyl)-4-fluorophenyl)-2-(4-fluorophenyl)-N-methyl-6-propylbenzofuran-3-carboxamide]	–	–	20
